Tested on: HL-60
Experiment: Inhibitory concentration which reduces half the percentage of differentiated HL-60 cells induced by 1x 10 e-9 M Am80
Assay type: functional, cell-based
Conditions: Homo sapiens

IC50: 17 nM
Structure (SMILES): CN1c2cc3c(cc2N=C(c2ccc(C(=O)O)cc2)c2ccc4ccccc4c21)C(C)(C)CCC3(C)C

Source: ChEMBL document CHEMBL1133259, “Polymethylcarborane as a novel bioactive moiety: derivatives with potent retinoid antagonistic activity” (Bioorg Med Chem Lett, 2000)
